Laboratory results reported in patent US10004701B2, “Methods and compositions for treating infection” (UNIVERSITY OF ROCHESTER, priority 2012, dated 2018).
Where a name gives a salt, the structure may show the parent alone. Read-outs that look alike come from different tables or passages of the source.

How the values were obtained:
Experiment in all cases: AK assay 384-well format, Prestwick library screening
E. faecium = assay type: cell-based, Enterococcus faecium; conditions: 50 μM final drug concentration; for fold induction at 50 µM: Enterococcus faecium, 3 h
E. cloacae = assay type: cell-based, Enterobacter cloacae; conditions: 50 μM final drug concentration; for fold induction at 50 µM: Enterobacter cloacae, 3 h
P. aeruginosa = assay type: cell-based, Pseudomonas aeruginosa; conditions: 50 μM final drug concentration; for fold induction at 50 µM: Pseudomonas aeruginosa, 3 h
K. pneumoniae = assay type: cell-based, Klebsiella pneumoniae; conditions: 50 μM final drug concentration; for fold induction at 50 µM: Klebsiella pneumoniae, 3 h
[1] = system: A. baumannii strain 98-37-09; assay type: cell-based, Acinetobacter baumannii; conditions: 50 μM final drug concentration; for fold induction at 50 µM: Acinetobacter baumannii, 983709, 3 h
E. coli = assay type: cell-based, Escherichia coli; conditions: 50 μM final drug concentration; for fold induction at 50 µM: Escherichia coli, 3 h
[2] = system: S. aureus strain USA300-0114; assay type: cell-based, Staphylococcus aureus; conditions: 50 μM final drug concentration; for fold induction at 50 µM: Staphylococcus aureus, USA300, 3 h
[3] = planktonic, cutoff for positive 3-fold increase, read-out: AK-based Prestwick Library Screening Results, E. faecium (fold increase in extracellular AK activity)
[4] = planktonic, cutoff for positive 3-fold increase, read-out: AK-based Prestwick Library Screening Results, E. cloacae (fold increase in extracellular AK activity)
[5] = planktonic, cutoff for positive 3-fold increase, read-out: AK-based Prestwick Library Screening Results, P. aeruginosa (fold increase in extracellular AK activity)
[6] = planktonic, cutoff for positive 3-fold increase, read-out: AK-based Prestwick Library Screening Results, K. pneumoniae (fold increase in extracellular AK activity)
[7] = planktonic, cutoff for positive 3-fold increase, read-out: AK-based Prestwick Library Screening Results, A. baumannii (fold increase in extracellular AK activity)
[8] = planktonic, cutoff for positive 3-fold increase, read-out: AK-based Prestwick Library Screening Results, E. coli (fold increase in extracellular AK activity)
[9] = planktonic, cutoff for positive 3-fold increase, read-out: AK-based Prestwick Library Screening Results, S. aureus (fold increase in extracellular AK activity)
[10] = cutoff for positive-scoring molecules 3-fold increase, read-out: AK-based Prestwick Library Screening Results, E. faecium (fold increase in extracellular AK activity)
[11] = cutoff for positive-scoring molecules 3-fold increase, read-out: AK-based Prestwick Library Screening Results, E. cloacae (fold increase in extracellular AK activity)
[12] = cutoff for positive-scoring molecules 3-fold increase, read-out: AK-based Prestwick Library Screening Results, P. aeruginosa (fold increase in extracellular AK activity)
[13] = cutoff for positive-scoring molecules 3-fold increase, read-out: AK-based Prestwick Library Screening Results, K. pneumoniae (fold increase in extracellular AK activity)
[14] = cutoff for positive-scoring molecules 3-fold increase, read-out: AK-based Prestwick Library Screening Results, A. baumannii (fold increase in extracellular AK activity)
[15] = cutoff for positive-scoring molecules 3-fold increase, read-out: AK-based Prestwick Library Screening Results, E. coli (fold increase in extracellular AK activity)
[16] = cutoff for positive-scoring molecules 3-fold increase, read-out: AK-based Prestwick Library Screening Results, S. aureus (fold increase in extracellular AK activity)

CC1(C)O[C@@H]2C[C@H]3[C@@H]4C[C@H](F)C5=CC(=O)C=C[C@]5(C)[C@H]4[C@@H](O)C[C@]3(C)[C@]2(C(=O)CO)O1 [Flunisolide]
fold induction at 50 µM (E. faecium; [3]): 0.9 | fold induction at 50 µM (E. cloacae; [4]): 0.3 | fold induction at 50 µM (P. aeruginosa; [5]): 0.3 | fold induction at 50 µM (K. pneumoniae; [6]): 0.5 | fold induction at 50 µM [1, 7]: 0.4 | fold induction at 50 µM (E. coli; [8]): 0.5 | fold induction at 50 µM [2, 9]: 0.4

Cc1c(Nc2ncccc2C(=O)O)cccc1C(F)(F)F [Flunixin meglumine]
fold induction at 50 µM (E. faecium; planktonic, […], read-out: AK-based Prestwick Library Screening Results, E. faecium (fold increase in extracellular AK activity)): 0.6 | fold induction at 50 µM (E. cloacae; planktonic, […], read-out: AK-based Prestwick Library Screening Results, E. cloacae (fold increase in extracellular AK activity)): 1 | fold induction at 50 µM (P. aeruginosa; planktonic, […], read-out: AK-based Prestwick Library Screening Results, P. aeruginosa (fold increase in extracellular AK activity)): 0.6 | fold induction at 50 µM (K. pneumoniae; planktonic, […], read-out: AK-based Prestwick Library Screening Results, K. pneumoniae (fold increase in extracellular AK activity)): 0.5 | fold induction at 50 µM ([1]; planktonic, […], read-out: AK-based Prestwick Library Screening Results, A. baumannii (fold increase in extracellular AK activity)): 0.5 | fold induction at 50 µM (E. coli; planktonic, […], read-out: AK-based Prestwick Library Screening Results, E. coli (fold increase in extracellular AK activity)): 0.6 | fold induction at 50 µM ([2]; planktonic, […], read-out: AK-based Prestwick Library Screening Results, S. aureus (fold increase in extracellular AK activity)): 0.5

CC(=O)OCC(=O)[C@@]12OC(C)(C)O[C@@H]1C[C@H]1[C@@H]3C[C@H](F)C4=CC(=O)C=C[C@]4(C)[C@@]3(F)[C@@H](O)C[C@@]12C [Fluocinonide]
fold induction at 50 µM (E. faecium; [10]): 1 | fold induction at 50 µM (E. cloacae; [11]): 1.7 | fold induction at 50 µM (P. aeruginosa; [12]): 1.2 | fold induction at 50 µM (K. pneumoniae; [13]): 0.9 | fold induction at 50 µM [1, 14]: 0.9 | fold induction at 50 µM (E. coli; [15]): 1 | fold induction at 50 µM [2, 16]: 1.1

C/C=C1/C[N@+]2(C)CC[C@]34C(=C(C=O)[C@H]1C[C@@H]32)Nc1ccccc14.[Cl-] [Fluorocurarine chloride]
AK-based Prestwick Library Screening Results, E. faecium (fold increase in extracellular AK activity) (E. faecium; planktonic, […]): 0.9 | AK-based Prestwick Library Screening Results, E. cloacae (fold increase in extracellular AK activity) (E. cloacae; planktonic, […]): 1.4 | AK-based Prestwick Library Screening Results, P. aeruginosa (fold increase in extracellular AK activity) (P. aeruginosa; planktonic, […]): 0.8 | AK-based Prestwick Library Screening Results, K. pneumoniae (fold increase in extracellular AK activity) (K. pneumoniae; planktonic, […]): 0.7 | AK-based Prestwick Library Screening Results, A. baumannii (fold increase in extracellular AK activity) ([1]; planktonic, […]): 0.9 | AK-based Prestwick Library Screening Results, E. coli (fold increase in extracellular AK activity) (E. coli; planktonic, […]): 0.9 | AK-based Prestwick Library Screening Results, S. aureus (fold increase in extracellular AK activity) ([2]; planktonic, […]): 0.8

CC(=O)[C@@]1(O)CC[C@H]2[C@@H]3C[C@H](C)C4=CC(=O)C=C[C@]4(C)[C@@]3(F)[C@@H](O)C[C@@]21C [Fluorometholone]
fold induction at 50 µM (E. faecium; [10]): 1 | fold induction at 50 µM (E. cloacae; [11]): 1.7 | fold induction at 50 µM (P. aeruginosa; [12]): 1.1 | fold induction at 50 µM (K. pneumoniae; [13]): 1 | fold induction at 50 µM [1, 14]: 1.3 | fold induction at 50 µM (E. coli; [15]): 1.1 | fold induction at 50 µM [2, 16]: 1.2

CNCCC(Oc1ccc(C(F)(F)F)cc1)c1ccccc1 (stereo not drawn) [Fluoxetine hydrochloride]
fold induction at 50 µM (E. faecium; planktonic E. faecium, cutoff for positive-scoring molecules 3-fold increase, read-out: AK-based Prestwick Library Screening Results, E. faecium (increase in extracellular AK activity)): 0.9 | fold induction at 50 µM (E. cloacae; planktonic E. cloacae, cutoff for positive-scoring molecules 3-fold increase, read-out: AK-based Prestwick Library Screening Results, E. cloacae (increase in extracellular AK activity)): 1.1 | fold induction at 50 µM (P. aeruginosa; planktonic P. aeruginosa, cutoff for positive-scoring molecules 3-fold increase, read-out: AK-based Prestwick Library Screening Results, P. aeruginosa (increase in extracellular AK activity)): 0.9 | fold induction at 50 µM (K. pneumoniae; planktonic K. pneumoniae, cutoff for positive-scoring molecules 3-fold increase, read-out: AK-based Prestwick Library Screening Results, K. pneumoniae (increase in extracellular AK activity)): 0.8 | fold induction at 50 µM ([1]; planktonic A. baumannii, cutoff for positive-scoring molecules 3-fold increase, read-out: AK-based Prestwick Library Screening Results, A. baumannii (increase in extracellular AK activity)): 1 | fold induction at 50 µM (E. coli; planktonic E. coli, cutoff for positive-scoring molecules 3-fold increase, read-out: AK-based Prestwick Library Screening Results, E. coli (increase in extracellular AK activity)): 1 | fold induction at 50 µM ([2]; planktonic S. aureus, cutoff for positive-scoring molecules 3-fold increase, read-out: AK-based Prestwick Library Screening Results, S. aureus (increase in extracellular AK activity)): 1.1

OCCN1CCN(CCCN2c3ccccc3Sc3ccc(C(F)(F)F)cc32)CC1 [Fluphenazine dihydrochloride]
fold induction at 50 µM (E. faecium; planktonic E. faecium, 384-well, cutoff for positive-scoring molecules 3-fold increase, read-out: AK-based Prestwick Library Screening Results: E. faecium (increase in extracellular AK activity)): 1.1 | fold induction at 50 µM (E. cloacae; planktonic E. cloacae, 384-well, cutoff for positive-scoring molecules 3-fold increase, read-out: AK-based Prestwick Library Screening Results: E. cloacae (increase in extracellular AK activity)): 1.6 | fold induction at 50 µM (P. aeruginosa; planktonic P. aeruginosa, 384-well, cutoff for positive-scoring molecules 3-fold increase, read-out: AK-based Prestwick Library Screening Results: P. aeruginosa (increase in extracellular AK activity)): 1.1 | fold induction at 50 µM (K. pneumoniae; planktonic K. pneumoniae, 384-well, cutoff for positive-scoring molecules 3-fold increase, read-out: AK-based Prestwick Library Screening Results: K. pneumoniae (increase in extracellular AK activity)): 1.5 | fold induction at 50 µM ([1]; planktonic A. baumannii, 384-well, cutoff for positive-scoring molecules 3-fold increase, read-out: AK-based Prestwick Library Screening Results: A. baumannii (increase in extracellular AK activity)): 1.6 | fold induction at 50 µM (E. coli; planktonic E. coli, 384-well, cutoff for positive-scoring molecules 3-fold increase, read-out: AK-based Prestwick Library Screening Results: E. coli (increase in extracellular AK activity)): 1.3 | fold induction at 50 µM ([2]; planktonic S. aureus, 384-well, cutoff for positive-scoring molecules 3-fold increase, read-out: AK-based Prestwick Library Screening Results: S. aureus (increase in extracellular AK activity)): 1

CC1(C)O[C@@H]2C[C@H]3[C@@H]4C[C@H](F)C5=CC(=O)CC[C@]5(C)[C@H]4[C@@H](O)C[C@]3(C)[C@]2(C(=O)CO)O1 [Flurandrenolide]
fold induction at 50 µM (E. faecium; [3]): 0.8 | fold induction at 50 µM (E. cloacae; [4]): 0.3 | fold induction at 50 µM (P. aeruginosa; [5]): 0.4 | fold induction at 50 µM (K. pneumoniae; [6]): 0.5 | fold induction at 50 µM [1, 7]: 0.5 | fold induction at 50 µM (E. coli; [8]): 0.5 | fold induction at 50 µM [2, 9]: 0.4

CC(C(=O)O)c1ccc(-c2ccccc2)c(F)c1 (stereo not drawn) [Flurbiprofen]
fold induction at 50 µM (E. faecium; planktonic, cutoff for positive-scoring molecules 3-fold increase, read-out: AK-based Prestwick Library Screening Results, E. faecium (fold increase in extracellular AK activity)): 0.9 | fold induction at 50 µM (E. cloacae; planktonic, cutoff for positive-scoring molecules 3-fold increase, read-out: AK-based Prestwick Library Screening Results, E. cloacae (fold increase in extracellular AK activity)): 1.6 | fold induction at 50 µM (P. aeruginosa; planktonic, cutoff for positive-scoring molecules 3-fold increase, read-out: AK-based Prestwick Library Screening Results, P. aeruginosa (fold increase in extracellular AK activity)): 0.8 | fold induction at 50 µM (K. pneumoniae; planktonic, cutoff for positive-scoring molecules 3-fold increase, read-out: AK-based Prestwick Library Screening Results, K. pneumoniae (fold increase in extracellular AK activity)): 0.7 | fold induction at 50 µM ([1]; planktonic, cutoff for positive-scoring molecules 3-fold increase, read-out: AK-based Prestwick Library Screening Results, A. baumannii (fold increase in extracellular AK activity)): 0.9 | fold induction at 50 µM (E. coli; planktonic, cutoff for positive-scoring molecules 3-fold increase, read-out: AK-based Prestwick Library Screening Results, E. coli (fold increase in extracellular AK activity)): 0.8 | fold induction at 50 µM ([2]; planktonic, cutoff for positive-scoring molecules 3-fold increase, read-out: AK-based Prestwick Library Screening Results, S. aureus (fold increase in extracellular AK activity)): 0.6
